# Test: Solvent for extracting tyramides from dissected tissue
# Type: physicochemical
# Settings: extraction of dissected tissue
# Description: Mature male […] (winged male sexuals) were used in all experiments. Maturity could only be determined upon dissection and determination of whether or not the male's testes were degenerated. This is the key indicator of maturity. See Ball and Vinson, Int. J. Insect Morphol. Embryol. 13:283-294 (1984) for a description and figure of the fire ant male genitalia. Males were discarded if their testes were not degenerated. Dissection of the male reproductive system was carried out in a drop of water. The entire system included pairs of degenerated testes, seminal vesicle, accessory glands, and the single external genitalia. After dissection of the entire system the three sections were further dissected: A) degenerated testes and seminal vesicle; B) accessory glands; and C) external genitalia. […]
compound,measurement,value
"CC(=O)NCCc1ccc(O)cc1 [Compound 1, acetyl tyramide]",suitability of methylene chloride as solvent,poor solvent
